Here are results for 4 compounds from patent US7910582B2, “Cyclopropyl amines as modulators of the histamine H3 receptor” (Janssen Pharmaceutica NV, priority 2005, dated 2011).

Where two headings read alike, the source gives them in different places.

The nature of this data set: Pharmacokinetics and bioanalysis in the rat. In kind it is in vivo, male Sprague Dawley Rats. The procedure:
One group of six male Sprague Dawley Rats (approx. 300 g body weight; three animals per time point) was used. They were group-housed, provided food and water ad libitum, and were maintained on a 12-h light and dark cycle. Animals were acclimatized for at least 7 days after receipt from the vendor prior to investigations.
For oral dosing, test compounds were formulated at 1 mg/mL in 0.5% hydroxypropyl methyl cellulose and delivered at a dose of 10 mg/kg. Citric acid salt forms (prepared as described for Example 1B) of the test compounds were used. Animals received a bolus dose of 10 mg/kg (10 mL/kg) for each compound via a 16 gauge intragastric gavage. For intravenous dosing, test compounds were formulated at 1 mg/mL in 5% dextrose in water and dosed at 1 mg/kg (1 mL/kg) with a bolus intravenous dose via a 24-gauge Terumo® Surflo® catheter in the lateral tail vein. All dosing solutions were prepared immediately prior to injection.
Blood samples (250 μL) were taken from the lateral tail vein into heparinized Natelson blood collection tubes and expelled into 1.5 mL mcirocentrifuge tubes. The blood samples were centrifuged for 5 min at 14,000 rpm in a micro-centrifuge. Plasma was retained and kept in a −20° C. freezer until analysis by LC-MS/MS.
Data analysis was performed using WinNonlin version 3.3 or 4.0.1. A non -compartmental model (#200 for Extravascular administration and #201 for i.v.) was used to determine the pharmacokinetic parameters shown in Tables 4 and 5 (NA=not applicable or not determined).

The mark [1] stands for this setting: male, Sprague Dawley, iv, i.v. 1 mg/kg, citric acid salt, plasma.
Where [2] appears, read: male, Sprague Dawley, oral 10 mg/kg, citric acid salt, plasma.
Setting [3] is: male, Sprague Dawley, plasma, iv, i.v. 1 mg/kg, citric acid salt, read-out: Vd.
The mark [4] stands for this setting: oral 10 mg/kg, citric acid salt.
Setting [5] is: compared with isopropyl / cyclobutyl analogs.
Setting [6] is: male, Sprague Dawley, iv, i.v. 1 mg/kg, citric acid salt, plasma, read-out: AUCINF (h-μmol/mL).
Setting [7] is: male, Sprague Dawley, oral 10 mg/kg, citric acid salt, plasma, read-out: AUCINF (h-μmol/mL).

Consider `CC(C)N1CCN(C(=O)c2ccc(CN3CCOCC3)cc2)CC1.O=C(O)CC(O)(CC(=O)O)C(=O)O` [Comparative Example 1B, (4-Isopropyl-piperazin-1-yl)-(4-morpholin-4-ylmethyl-phenyl) -methanone citrate salt], for which the “CI” value (i.v. 1 mg/kg, citric acid salt) is listed as 12.8 mL/min/kg and the “CI” value under setting [4] stood at 17.1 mL/min/kg. Besides, the “T1/2” value (i.v. 1 mg/kg, citric acid salt, plasma) was found to be 192 min. Further, the maximum concentration (Cmax) (as a rule, the maximum level reached in the sampled fluid or tissue) under setting [1] is 4110 ng/mL and the Cmax under setting [2] turned out to be 1050 ng/mL. Besides, the AUC(0-inf) runs as follows: (male, Sprague Dawley, iv, i.v. 1 mg/kg, citric acid salt, plasma, read-out: AUCINF) 1560 ng·h/mL; (male, Sprague Dawley, oral 10 mg/kg, citric acid salt, plasma, read-out: AUCINF) 9740 ng·h/mL. For the same compound, the Tmax (as a rule, the time at which the peak concentration occurs) under setting [2] stood at 90 min. Further, under setting [2], the half-life (usually how long it takes for the measured level to halve) is 283 min. The Vd was determined as 3.55 L/kg under setting [3] and 6.98 L/kg under setting [4].
Turning to `O=C(O)CC(O)(CC(=O)O)C(=O)O.O=C(c1ccc(CN2CCSCC2)cc1)N1CCN(C2CC2)CC1` [Example 3B, (4-Cyclopropyl-piperazin-1-yl)-(4-thiomorpholin-4-ylmethyl-phenyl) -methanone citrate salt], under setting [5], the “half-life (T1/2) relative to the comparative examples” value is given as “shorter T1/2” and the “volume of distribution (Vd) relative to the comparative examples” value is recorded as “lower Vd”. In addition, under “i.v. 1 mg/kg, citric acid salt”, the “CI” value is given as 282 mL/min/kg. Moreover, under setting [1], the peak concentration (Cmax) came out at 860 nM and the half-life was 16.2 min. Moreover, the AUC(0-inf) under setting [6] was 0.18 µM·h. Under setting [2], the Cmax came to 190 nM, the Tmax stood at 15 min and the half-life was 24.6 min. For the same compound, the AUC(0-inf) under setting [7] was 0.18 µM·h. In addition, under setting [3], the Vd was 6.48 L/kg.
`O=C(O)CC(O)(CC(=O)O)C(=O)O.O=C(c1ccc(CN2CCSCC2)cc1)N1CCN(C2CCC2)CC1` [Comparative Example 5B, (4-Cyclobutyl-piperazin-1-yl)-(4-thiomorpholin-4-ylmethyl-phenyl)-methanone citrate salt]: the “CI” value (i.v. 1 mg/kg, citric acid salt) is listed as 154 mL/min/kg. Further, under setting [1], the Cmax stood at 2680 nM and the half-life was 79.8 min. Also, the AUC(0-inf) under setting [6] was found to be 0.42 µM·h. In addition, under setting [2], the Cmax worked out at 70 nM, the Tmax was 22.8 min and the half-life is 57 min. The AUC(0-inf) under setting [7] was determined as 0.12 µM·h. The Vd under setting [3] is 17.8 L/kg.
Take `O=C(O)CC(O)(CC(=O)O)C(=O)O.O=C(c1ccc(CN2CCC(F)CC2)cc1)N1CCN(C2CCC2)CC1` [Comparative Example 4B, (4-Cyclobutyl-piperazin-1-yl)-[4-(4-fluoro-piperidin-1-ylmethyl)-phenyl]-methanone citrate salt]: where the note is “i.v. 1 mg/kg, citric acid salt”, the “CI” value amounted to 113 mL/min/kg and the “Vd” value is on record as 20.3 L/kg. Further, under setting [1], the Cmax is 460 nM and the half-life is 125 min. The AUC(0-inf) under setting [6] was 0.41 µM·h. In addition, under setting [2], the peak concentration (Cmax) was determined as 480 nM, the time to peak (Tmax) came out at 40.2 min and the half-life is 206 min. For the same compound, under setting [7], the AUC(0-inf) was 1.28 µM·h. Under setting [4], the “CI” value stood at 1135 mL/min/kg and the “Vd” value is recorded as 397 L/kg.
